Common to all, as to assay: inhibition of tumour cell growth, NCI panel, 48 h
Assay [1] concerns HL-60(TB) leukemia.
The test system of assay [2] is OVCAR-8 ovarian.
The subject of assay [3] is M14 melanoma.
The test system of assay [4] is A549 NSCLC.
The subject of assay [5] is MOLT-4 leukemia.
The subject of assay [6] is T-47D breast.
Assay [7] has as its system OVCAR-4 ovarian.
The subject of assay [8] is U251 CNS.
The subject of assay [9] is NCI-H226 lung.
Assay [10] concerns KM12 colon.

Where “and” joins values, the source holds several entries; their conditions need not be identical. Identical values can stand only once.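 Cells were grown in 96-well plates and exposed to each compound for 48 hours at five concentrations; endpoints were interpolated linearly between bracketing concentrations, or set to the highest concentration if not reached. GI50 = concentration required for 50% inhibition of growth. TGI marks complete inhibition of growth.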 A value given as a limit tells only on which side of the number the result lay.

`COC(Cc1cc(C(O)(c2ccc(C(C)(C)C)cc2)c2cc(CC(OC)(c3cc(C(OC)(c4ccc(C(C)(C)C)cc4)c4ccc(C(C)(C)C)cc4)c(C)cc3C)c3cc(C(OC)(c4ccc(C(C)(C)C)cc4)c4ccc(C(C)(C)C)cc4)c(C)cc3C)c(C)cc2C)c(C)cc1C)(c1cc(C(OC)(c2ccc(C(C)(C)C)cc2)c2ccc(C(C)(C)C)cc2)c(C)cc1C)c1cc(C(OC)(c2ccc(C(C)(C)C)cc2)c2ccc(C(C)(C)C)cc2)c(C)cc1C`: the TGI in [1], in [2], in assay [3], in assay [4], in assay [5] and in [6] was greater than 75 µM throughout. The TGI in assay [7], in [8] and in [9] was greater than 75 µM in each case.

Turning to `CC(C)(C)c1ccc(NS(=O)(=O)c2ccc(N)cc2)cc1`, the TGI in assay [1] is 38.1 µM; in assay [2], 68.5 µM; in assay [10], greater than 100 µM; in assay [3], 44.2 µM; in [4], greater than 100 µM; in [5] it was 34.5 µM. For the same molecule, the TGI is greater than 100 µM in assay [6], greater than 100 µM in assay [7], 39.2 µM in assay [8] and 45.8 µM in [9].

With `Cc1cc(C)n(CN(CCCCO)Cn2nc(C)cc2C)n1`, the TGI in [1] is 79 µM; in assay [2], 41.7 µM; in assay [10], 60.6 µM; in assay [3], 33.9 µM; in assay [4], greater than 100 µM; in assay [5], 50.7 µM. The TGI amounted to 66.5 µM in [6], 61.9 µM in [7] and 49.9 µM in [8].

In the case of `COc1ccc2c(c1)C(=O)c1c-2n(CCCN=[N+]=[N-])c(=O)c2cc([N+](=O)[O-])ccc12`, the TGI in assay [2] was greater than 100 µM; in assay [10] it was greater than 100 µM; in assay [3] it was 1.3 µM; in [4], greater than 100 µM; in assay [6], greater than 100 µM; in assay [9], 0.874 µM. For the same molecule, the GI50 in [10] is 0.558 µM and 3.4 µM; in assay [5], less than 0.001 µM; in assay [6], 1.57 µM; in assay [8], 0.16 µM; in assay [9], 0.268 µM.

For `O=S(=O)(O)c1ccc(N=Nc2ccc(N=Nc3c(O)ccc4ccc(S(=O)(=O)O)cc34)cc2)cc1`, the TGI in [1], in assay [2], in assay [10], in assay [3], in assay [4] and in [5] was greater than 100 µM each time. In addition, the TGI in assay [6], in assay [7], in assay [8] and in [9] was greater than 100 µM each time.

`O=C(N/N=C\c1ccc(N(CCCl)CCCl)cc1)c1cccnc1`: the GI50 was 3.39 µM in [1]; 39.8 µM in assay [2]; 61.9 µM in assay [10]; 60.2 µM in [3]; 37.5 µM in assay [4]; 6.95 µM in assay [5]. Further, the GI50 in assay [6] is 26.5 µM; in assay [8], greater than 100 µM; in assay [9] it was 2.13 µM. For the same molecule, the TGI is 46.9 µM in assay [1]; greater than 100 µM in assay [2]; greater than 100 µM in [10]; greater than 100 µM in assay [3]; greater than 100 µM in assay [4]; greater than 100 µM in [5]. The TGI in assay [6] was greater than 100 µM; in [8], greater than 100 µM; in assay [9] it was 11.4 µM.

`CCOC(=O)NC(=O)c1cn(CCN(CCO)C(=O)NCCCCCCNC(=O)N(CCO)CCn2cc(C(=O)NC(=O)OCC)c(=O)[nH]c2=O)c(=O)[nH]c1=O`: the TGI in assay [1], in assay [2], in [10], in assay [4], in [5] and in assay [7] was greater than 100 µM throughout. In addition, the TGI in assay [8] and in [9] was greater than 100 µM each time.

Consider `CCCC[n+]1ccn(-c2nc3ccccc3n2C)c1`, for which the TGI in assay [1], in [2], in assay [3], in [4], in [5] and in [7] was greater than 100 µM in each case. For the same molecule, the TGI in assay [8] and in assay [9] was greater than 100 µM each time.

On to `C/C=C(\C)C(=O)OC1C2C(C)=CC(=O)C(O)C2(C)C2C3(O)OCC24C1OC(=O)C(OC(C)=O)C4C(C)C3O` (centres undefined), for which the TGI in [1] came out at 0.808 µM; in [2] it was 0.105 µM; in [10] it was 0.0375 µM; in assay [4], 0.648 µM; in assay [5], 0.75 µM; in assay [7] it was 0.413 µM. Further, the results for the TGI in assay [8] and in assay [9] were 0.0407 µM and 0.0427 µM, respectively.

With `CC1=C/C(=N\NS(=O)(=O)c2ccc([N+](=O)[O-])cc2)CC(C)(C)C1`, the TGI in assay [1], in assay [2], in assay [10], in assay [3], in assay [4] and in assay [5] was greater than 100 µM in each case. Besides, the TGI in [6] and in assay [8] was greater than 100 µM in each case.

Source of the values: PubChem BioAssay (NCI).
